System: human cardiomyocytes

## COc1cccc2c1C(=O)c1c(O)c3c(c(O)c1C2=O)C[C@@](O)(C(=O)CO)C[C@@H]3O[C@H]1C[C@H](N)[C@H](O)[C@H](C)O1 [free doxorubicin, (8S,10S)-10-(4-amino-5 hydroxy-6-methyl-tetrahydro-2H-pyran-2-yloxy)-6,8,11-trihydroxy-8-(2-hydroxyacetyl)-1-methoxy-7,8,9,10-tetrahydrotetracene-5,12-dione]
  level of uptake into human cardiomyocytes: relatively much higher compared to both MM-302 and untargeted pegylated liposomal doxorubicin

From US9913901B2, “Combination therapy for treating HER2-positive cancers” (Merrimack Pharmaceuticals, Inc., priority 2012, dated 2018)
